For 22 compounds, EC50 results are on record in EP4001279A1, “NOVEL SPIROPYRROLIDINE DERIVED ANTIVIRAL AGENTS” (Enanta Pharmaceuticals, Inc., priority 2020, dated 2022).

SMILES strings stand for the structures.

This test concerns 229E human corona virus (hCoV). Description: 229E live virus assay (CPE, ATPlite readout in MRC-5 cells). It counts as cell-based, hCoV-229E. Particulars: Human coronavirus 229E, MRC5, hCoV-229E live virus, MOI 0.05, ATPlite readout, run in duplicate. On the technique in general: ATP-based viability assays read luminescence as a measure of living cells.
With `CC(C)C[C@@H](C(=O)N1C[C@]2(C[C@H]1C#N)C(=O)Nc1ccccc12)N(C)C(=O)c1cncc(C(F)(F)F)c1` [Example 195], the concentration giving a half-maximal response (EC50) – broadly, the concentration needed to bring the measured effect to its halfway point – was less than 100 nM.

The compound `CC(C)C[C@@H](C(=O)N1C[C@]2(C[C@H]1C#N)C(=O)Nc1ccccc12)N(C)C(=O)c1cc(Cl)cc(C#N)c1` [Example 187] returned a concentration giving a half-maximal response (EC50) of less than 100 nM.

Turning to `CC(C)(C)C[C@H](NC(=O)c1cc2c(F)cc(F)cc2[nH]1)C(=O)N1C[C@]2(C[C@H]1C#N)C(=O)Nc1ccc(Cl)cc12` [Example 448], the EC50 was less than 100 nM.

As for `COc1cccc2[nH]c(C(=O)N(C)[C@@H](CC(C)C)C(=O)N3C[C@]4(C[C@H]3C#N)C(=O)N(C)c3ccccc34)cc12` [Example 121], the EC50 lay in the range of 100 to 1000 nM.

Compound `COc1cc(C#N)cc2[nH]c(C(=O)N[C@@H](CC(C)C)C(=O)N3C[C@]4(C[C@H]3C#N)C(=O)Nc3ccccc34)cc12` [Example 26] yielded an EC50 of less than 100 nM.

For the compound `CC(C)C[C@@H](C(=O)N1C[C@]2(C[C@H]1C#N)C(=O)Nc1ccccc12)N(C)C(=O)c1cccc(OC(F)(F)F)c1` [Example 189], the EC50 is less than 100 nM.

The compound `C#CCOC[C@H](NC(=O)c1cc2c(OC)cccc2[nH]1)C(=O)N1C[C@]2(C[C@H]1C#N)C(=O)Nc1ccccc12` [Example 127] gave an EC50 of less than 100 nM.

In the case of `CC(C)C[C@@H](C(=O)N1C[C@]2(C[C@H]1C#N)C(=O)Nc1ccccc12)N(C)C(=O)c1cc2ccccc2cn1` [Example 212], the EC50 is less than 100 nM.

As to `CC(C)CC[C@@H](C(=O)N1C[C@]2(C[C@H]1C#N)C(=O)Nc1ccccc12)N(C)C(=O)c1cc2c(F)cc(F)cc2[nH]1` [Example 104], the half-maximal effective concentration (EC50) is less than 100 nM.

With `CCCN(C(=O)c1cc2c(F)cccc2[nH]1)[C@@H](CC(C)C)C(=O)N1C[C@]2(C[C@H]1C#N)C(=O)Nc1ccccc12` [Example 98], the EC50 was 100 to 1000 nM.

`CC(C)C[C@@H](C(=O)N1C[C@]2(C[C@H]1C#N)C(=O)Nc1ccccc12)N(C)C(=O)c1cc(OC2CC2)n2nc(C3CC3)cc2c1` [Example 315] came in with an EC50 of 100 to 1000 nM.

On to `CCN(C(=O)c1cc2c(F)cccc2[nH]1)[C@@H](CC(C)C)C(=O)N1C[C@]2(C[C@H]1C#N)C(=O)Nc1ccccc12` [Example 95], for which the concentration for a half-maximal effect (EC50) lay in the range of 100 to 1000 nM.

Take `CN(C(=O)OCc1ccccc1)[C@@H](CC(C)(C)C)C(=O)N1C[C@]2(C[C@H]1C#N)C(=O)Nc1ccccc12` [Example 40]: the concentration for a half-maximal effect (EC50) lay in the range of 100 to 1000 nM.

`CC(C)C[C@@H](C(=O)N1C[C@]2(C[C@H]1C#N)C(=O)Nc1ccccc12)N(C)C(=O)c1cccc(OC(F)F)c1` [Example 188]: the EC50 was less than 100 nM.

On to `CC(C)C[C@@H](C(=O)N1C[C@]2(C[C@H]1C#N)C(=O)Nc1ccccc12)N(C)C(=O)c1ncccc1Cl` [Example 59], for which the EC50 is greater than 1000 nM.

`COc1cccc2[nH]c(C(=O)N[C@@H](CC(C)C)C(=O)N3C[C@]4(C[C@H]3C#N)C(=O)Nc3ccccc34)cc12` [Example 11] came in with an EC50 of less than 100 nM.

On to `CN(C(=O)c1cc2c(F)cc(F)cc2[nH]1)[C@@H](COC(C)(C)C)C(=O)N1C[C@]2(C[C@H]1C#N)C(=O)Nc1ccccc12` [Example 371], for which the half-maximal effective concentration (EC50) was less than 100 nM.

In the case of `[2H]C([2H])([2H])N(C(=O)Cc1ccncc1)[C@@H](CC(C)(C)F)C(=O)N1C[C@]2(C[C@H]1C#N)C(=O)Nc1ccc(Cl)cc12` [Example 474], the concentration giving a half-maximal response (EC50) fell in the range of 100 to 1000 nM.

On to `CC(C)(C)OC(=O)NC[C@H](NC(=O)c1cc2c(F)cc(F)cc2[nH]1)C(=O)N1C[C@]2(C[C@H]1C#N)C(=O)Nc1ccccc12` [Example 128], for which the EC50 was greater than 1000 nM.

The compound `CC(C)C[C@@H](C(=O)N1C[C@]2(C[C@H]1C#N)C(=O)Nc1ccccc12)N(C)C(=O)c1cc2c(OC3CC3)cccc2[nH]1` [Example 82] showed an EC50 of less than 100 nM.

`CC(C)C[C@@H](C(=O)N1C[C@]2(C[C@H]1C#N)C(=O)Nc1ccccc12)N(C)C(=O)c1ccc2ccncc2c1` [Example 217] registered a 50% effective concentration (EC50) of less than 100 nM.

In turn, `[2H]C([2H])([2H])N(C(=O)c1cn(CC(F)(F)F)nn1)[C@@H](CC(C)(C)C)C(=O)N1C[C@]2(C[C@H]1C#N)C(=O)Nc1ccccc12` [Example 380] showed a half-maximal effective concentration (EC50) of less than 100 nM.
